Where two headings read alike, the source gives them in different places.
Tested on: GM01896 cells (MPS II dermal fibroblasts)
Experiment: Assay 1: MPS cellular assay, MPS II (heparan sulfate disaccharide biomarkers by LC-MS)
Assay type: cell-based, human
Conditions: Assay 1 for MPS II, heparan sulfate disaccharide biomarkers (I2a4, I2a6, I2S0 and/or I2S6), read-out: IC50 Range
In short: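 MPS II patient dermal fibroblasts (GM01896) treated with compound at ≤30 μM for 4 to 21 days. Heparan sulfate GAGs isolated by anion exchange, digested with heparinases I-III, aniline-tagged against [13C6]aniline standards and quantified by LC-MS; IC50 from curve fitting. Viability monitored by alamar blue or ATP.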

CNC(=O)c1ccc(Nc2cc(-c3ccc4nc(C)n(C5CC5)c4c3)nc(N3CCOCC3)n2)cc1 [(4-{[6-(1-cyclopropyl-2-methylbenzimidazol-6-yl)-2-morpholin-4-ylpyrimidin-4-yl]amino}phenyl)-N-methylcarboxamide]
IC50 (Homo sapiens, Fibroblast): < 500 nM

CNC(=O)c1ccc(Nc2cc(-c3ccc4c(cnn4CCCN4CCOCC4)c3)nc(N3CCOCC3)n2)cc1 [N-methyl[4-({2-morpholin-4-yl-6-[1-(3-morpholin-4-ylpropyl)(1H-indazol-5-yl)]pyrimidin-4-yl}amino)phenyl]carboxamide]
IC50 (Homo sapiens, Fibroblast): 1000 to 5000 nM

Cc1nn(C)c2cc(-c3cc(Nc4ccc5c(ccn5C)c4)nc(N4CCOCC4)n3)ccc12 [[6-(1,3-dimethyl(1H-indazol-6-yl))-2-morpholin-4-ylpyrimidin-4-yl](1-methylindol-5-yl)amine]
IC50 (Homo sapiens, Fibroblast): 500 to 1000 nM

CNS(=O)(=O)c1ccc(Nc2cc(-c3ccc4cnn(C)c4c3)nc(N3CCOCC3)n2)cc1 [methyl[(4-{[6-(1-methyl(1H-indazol-6-yl))-2-morpholin-4-ylpyrimidin-4-yl]amino}phenyl)sulfonyl]amine]
IC50 (Homo sapiens, Fibroblast): 1000 to 5000 nM

Cc1cnn(-c2ccc(Nc3cc(-c4ccc5c(CCN6CCOCC6)nn(C)c5c4)nc(N4CCOCC4)n3)cc2)n1 [[4-(4-methyl(1,2,3-triazol-2-yl))phenyl]{6-[1-methyl-3-(2-morpholin-4-ylethyl)(1H-indazol-6-yl)]-2-morpholin-4-ylpyrimidin-4-yl}amine]
IC50 (Homo sapiens, Fibroblast): < 500 nM

CNC(=O)c1ccc(Nc2cc(-c3ccc4c(c3)ncn4CC3CC3)nc(N3CCOCC3)n2)cn1 [[5-({6-[1-(cyclopropylmethyl)benzimidazol-5-yl]-2-morpholin-4-ylpyrimidin-4-yl}amino)(2-pyridyl)]-N-methylcarboxamide]
IC50 (Homo sapiens, Fibroblast): 500 to 1000 nM

Cn1cnc2ccc(-c3cc(Nc4ccc(Cl)cc4)nc(N4CCOCC4)n3)cc21 [(4-chlorophenyl)[6-(1-methylbenzimidazol-6-yl)-2-morpholin-4-ylpyrimidin-4-yl]amine]
IC50 (Homo sapiens, Fibroblast): < 500 nM

Cn1cc(-c2ccc(Nc3cc(-c4ccc5cnn(C)c5c4)nc(N4CCOCC4)n3)cc2)nn1 [[4-(1-methyl(1,2,3-triazol-4-yl))phenyl][6-(1-methyl(1H-indazol-6-yl))-2-morpholin-4-ylpyrimidin-4-yl]amine]
IC50 (Homo sapiens, Fibroblast): 1000 to 5000 nM

Cn1ncc2ccc(-c3cc(Nc4ccc5ncoc5c4)nc(N4CCOCC4)n3)cc21 [benzoxazol-6-yl[6-(1-methyl(1H-indazol-6-yl))-2-morpholin-4-ylpyrimidin-4-yl]amine]
IC50 (Homo sapiens, Fibroblast): 1000 to 5000 nM

Cc1nc2ccc(-c3cc(Nc4ccc(Cl)cc4)nc(N4CCOCC4)n3)cc2n1C [[6-(1,2-dimethylbenzimidazol-6-yl)-2-morpholin-4-ylpyrimidin-4-yl](4-chlorophenyl)amine]
IC50 (Homo sapiens, Fibroblast): 500 to 1000 nM

CNC(=O)c1ccc(Nc2cc(-c3ccc4cnn(CCN5CCOCC5)c4c3)nc(N3CCOCC3)n2)cc1 [N-methyl[4-({2-morpholin-4-yl-6-[1-(2-morpholin-4-ylethyl)(1H-indazol-6-yl)]pyrimidin-4-yl}amino)phenyl]carboxamide]
IC50 (Homo sapiens, Fibroblast): 500 to 1000 nM

Clc1ccc(Nc2cc(-c3ccc4c(c3)ncn4CCCN3CCOCC3)nc(N3CCOCC3)n2)cc1 [(4-chlorophenyl){2-morpholin-4-yl-6-[1-(3-morpholin-4-ylpropyl)benzimidazol-5-yl]pyrimidin-4-yl}amine]
IC50 (Homo sapiens, Fibroblast): 1000 to 5000 nM

Cn1c(=O)[nH]c2ccc(-c3cc(Nc4ccc(Cl)cc4)nc(N4CCOCC4)n3)cc21 [6-{6-[(4-chlorophenyl)amino]-2-morpholin-4-ylpyrimidin-4-yl}-1-methyl-3-hydrobenzimidazol-2-one]
IC50: < 500 nM

Cn1ncc2ccc(-c3cc(Nc4ccc(S(C)(=O)=O)cc4)nc(N4CCOCC4)n3)cc21 [1-{[6-(1-methyl(1H-indazol-6-yl))-2-morpholin-4-ylpyrimidin-4-yl]amino}-4-(methylsulfonyl)benzene]
IC50 (Homo sapiens, Fibroblast): 1000 to 5000 nM

Cc1ccc(Nc2cc(-c3ccc4ncn(C)c4c3)nc(N3CCOCC3)n2)cc1 [[6-(1-methylbenzimidazol-6-yl)-2-morpholin-4-ylpyrimidin-4-yl](4-methylphenyl)amine]
IC50 (Homo sapiens, Fibroblast): 1000 to 5000 nM

Cn1ncc2ccc(-c3cc(Nc4ccc(-c5nnc(C6CC6)[nH]5)cc4)nc(N4CCOCC4)n3)cc21 [[4-(5-cyclopropyl(4H-1,2,4-triazol-3-yl))phenyl][6-(1-methyl(1H-indazol-6-yl))-2-morpholin-4-ylpyrimidin-4-yl]amine]
IC50 (Homo sapiens, Fibroblast): < 500 nM

Cn1ncc2ccc(-c3cc(Nc4ccccc4)nc(N4CCOCC4)n3)cc21 [6-(1-methyl-1H-indazol-6-yl)-2-morpholino-N-phenylpyrimidin-4-amine]
IC50 (Homo sapiens, Fibroblast): 1000 to 5000 nM

Cc1nc2cc(-c3cc(Nc4ccc(Cl)cc4)nc(N4CCOCC4)n3)ccc2n1C1COC1 [(4-chlorophenyl)[6-(2-methyl-1-oxetan-3-ylbenzimidazol-5-yl)-2-morpholin-4-ylpyrimidin-4-yl]amine]
IC50 (Homo sapiens, Fibroblast): < 500 nM

Cn1ncc2ccc(-c3cc(Nc4ccc(-c5ncco5)cc4)nc(N4CCOCC4)n3)cc21 [[6-(1-methyl(1H-indazol-6-yl))-2-morpholin-4-ylpyrimidin-4-yl](4-(1,3-oxazol-2-yl)phenyl)amine]
IC50 (Homo sapiens, Fibroblast): 500 to 1000 nM

Cc1nn(C)c2cc(-c3cc(Nc4ccc(-c5ccn(C)n5)cc4)nc(N4CCOCC4)n3)ccc12 [[6-(1,3-dimethyl(1H-indazol-6-yl))-2-morpholin-4-ylpyrimidin-4-yl][4-(1-methylpyrazol-3-yl)phenyl]amine]
IC50 (Homo sapiens, Fibroblast): 1000 to 5000 nM

Cn1ncc2ccc(-c3cc(Nc4ccc(S(N)(=O)=O)cc4)nc(N4CCOCC4)n3)cc21 [4-{[6-(1-methyl(1H-indazol-6-yl))-2-morpholin-4-ylpyrimidin-4-yl]amino}benzenesulfonamide]
IC50 (Homo sapiens, Fibroblast): 1000 to 5000 nM

Clc1ccc(Nc2cc(-c3ccc4cnn(CCCN5CCOCC5)c4c3)nc(N3CCOCC3)n2)cc1 [(4-chlorophenyl){2-morpholin-4-yl-6-[1-(3-morpholin-4-ylpropyl)(1H-indazol-6-yl)]pyrimidin-4-yl}amine]
IC50 (Homo sapiens, Fibroblast): 1000 to 5000 nM

Cc1nn(C)c2cc(-c3cc(Nc4ccc(-c5ncc(C(F)(F)F)[nH]5)cc4)nc(N4CCOCC4)n3)ccc12 [[6-(1,3-dimethyl(1H-indazol-6-yl))-2-morpholin-4-ylpyrimidin-4-yl]{4-[5-(trifluoromethyl)imidazol-2-yl]phenyl}amine]
IC50 (Homo sapiens, Fibroblast): 500 to 1000 nM

Cc1nn(C)c2cc(-c3cc(Nc4ccc(-c5nnc[nH]5)cc4)nc(N4CCOCC4)n3)cnc12 [(4-(4H-1,2,4-triazol-3-yl)phenyl)[6-(1,3-dimethylpyrazolo[4,5-b]pyridin-6-yl)-2-morpholin-4-ylpyrimidin-4-yl]amine]
IC50 (Homo sapiens, Fibroblast): < 500 nM

Cn1nc(CCN2CCOCC2)c2ccc(-c3cc(Nc4ccc(C#N)cc4)nc(N4CCOCC4)n3)cc21 [4-({6-[1-methyl-3-(2-morpholin-4-ylethyl)(1H-indazol-6-yl)]-2-morpholin-4-ylpyrimidin-4-yl}amino)benzenecarbonitrile]
IC50 (Homo sapiens, Fibroblast): 1000 to 5000 nM

Cn1ncc2ccc(-c3cc(Nc4ccc5nnn(C)c5c4)nc(N4CCOCC4)n3)cc21 [[6-(1-methyl(1H-indazol-6-yl))-2-morpholin-4-ylpyrimidin-4-yl](1-methylbenzotriazol-6-yl)amine]
IC50 (Homo sapiens, Fibroblast): 1000 to 5000 nM

Cc1nnc(-c2ccc(Nc3cc(-c4cnc5cnn(C)c5c4)nc(N4CCOCC4)n3)cc2)[nH]1 [[4-(5-methyl(4H-1,2,4-triazol-3-yl))phenyl][6-(1-methylpyrazolo[4,5-b]pyridin-6-yl)-2-morpholin-4-ylpyrimidin-4-yl]amine]
IC50 (Homo sapiens, Fibroblast): < 500 nM

Cn1cnc(-c2ccc(Nc3cc(-c4ccc5cnn(C)c5c4)nc(N4CCOCC4)n3)cc2)c1 [[6-(1-methyl(1H-indazol-6-yl))-2-morpholin-4-ylpyrimidin-4-yl][4-(1-methylimidazol-4-yl)phenyl]amine]
IC50 (Homo sapiens, Fibroblast): 500 to 1000 nM

CN1CCN(c2nn(C)c3cc(-c4cc(Nc5ccc(Cl)cc5)nc(N5CCOCC5)n4)ccc23)CC1 [(4-chlorophenyl){6-[1-methyl-3-(4-methylpiperazinyl)(1H-indazol-6-yl)]-2-morpholin-4-ylpyrimidin-4-yl}amine]
IC50 (Homo sapiens, Fibroblast): 1000 to 5000 nM

Clc1ccc(Nc2cc(-c3ccc4cnn(CCN5CCCC5)c4c3)nc(N3CCOCC3)n2)cc1 [(4-chlorophenyl){2-morpholin-4-yl-6-[1-(2-pyrrolidinylethyl)(1H-indazol-6-yl)]pyrimidin-4-yl}amine]
IC50 (Homo sapiens, Fibroblast): 1000 to 5000 nM

COC(=O)c1ccc(Nc2cc(-c3ccc4cnn(CCCN5CCOCC5)c4c3)nc(N3CCOCC3)n2)cc1 [methyl 4-({2-morpholin-4-yl-6-[1-(3-morpholin-4-ylpropyl)(1H-indazol-6-yl)]pyrimidin-4-yl}amino)benzoate]
IC50 (Homo sapiens, Fibroblast): 500 to 1000 nM

CCc1nn(C)c2cc(-c3cc(Nc4ccc(Cl)cc4)nc(N4CCOCC4)n3)ccc12 [(4-chlorophenyl)[6-(3-ethyl-1-methyl(1H-indazol-6-yl))-2-morpholin-4-ylpyrimidin-4-yl]amine]
IC50 (Homo sapiens, Fibroblast): 1000 to 5000 nM

Cc1nn(C)c2cc(-c3cc(Nc4ccc5cc[nH]c5c4)nc(N4CCOCC4)n3)ccc12 [[6-(1,3-dimethyl(1H-indazol-6-yl))-2-morpholin-4-ylpyrimidin-4-yl]indol-6-ylamine]
IC50 (Homo sapiens, Fibroblast): 500 to 1000 nM

Cn1nc(CCN2CCOCC2)c2ccc(-c3cc(Nc4ccc5cn[nH]c5c4)nc(N4CCOCC4)n3)cc21 [1H-indazol-6-yl{6-[1-methyl-3-(2-morpholin-4-ylethyl)(1H-indazol-6-yl)]-2-morpholin-4-ylpyrimidin-4-yl}amine]
IC50 (Homo sapiens, Fibroblast): 500 to 1000 nM

Cn1cnc2ccc(-c3cc(Nc4ccc(S(N)(=O)=O)cc4)nc(N4CCOCC4)n3)cc21 [4-{[6-(1-methylbenzimidazol-6-yl)-2-morpholin-4-ylpyrimidin-4-yl]amino}benzenesulfonamide]
IC50 (Homo sapiens, Fibroblast): 1000 to 5000 nM

Cn1nc(CN2CCOCC2)c2ccc(-c3cc(Nc4ccc(Cl)cc4)nc(N4CCOCC4)n3)cc21 [(4-chlorophenyl){6-[1-methyl-3-(morpholin-4-ylmethyl)(1H-indazol-6-yl)]-2-morpholin-4-ylpyrimidin-4-yl}amine]
IC50 (Homo sapiens, Fibroblast): 1000 to 5000 nM

— patent US20190151312A1, “HEPARAN SULFATE BIOSYNTHESIS INHIBITORS FOR THE TREATMENT OF DISEASES” (BioMarin Pharmaceutical Inc., priority 2014, published 2019)
